Test results as given in patent US20210186947A1, “TOMM6-INTERACTING EXTRACTS AND COMPOUNDS FOR USE IN THE TREATMENT AND PROPHYLAXIS OF NERVOUS SYSTEM DISEASES, ATHEROSCLEROSIS, HEPATITIS B INFECTION AND HUMAN PAPILLOMA VIRUS (HPV) INFECTION” (ETH ZURICH, priority 2018, published 2021).

Columns and labels:
[1] = system: hippocampal neuronal cell bodies (NeuN); assay: Hippocampal neuronal loss in Tg2576 mice subjected to CUMS, binding assay with [125I]-labeled anti-NeuN antibody; assay type: in vivo; settings: 15 months-old Tg2576 mice, 3 months of CUMS, treated during CUMS; compounds 10 mg/kg/d
[2] = system: Abeta plaques; assay: Abeta plaque load in Tg2576 mice, immunohistology with BAM-10 antibody; assay type: in vivo; settings: 18-month-old Tg2576 mice treated for 6 months
[3] = biological target: T1, Tomm6 (Mitochondrial import receptor subunit TOMM6 homolog) (Mus musculus, UniProt Q9CQN3); assay: Identification of Compound-1-interacting hippocampal proteins by co-migration in SDS-PAGE and nano-LC-ESI-MS/MS; assay type: binding, Tg2576 mice; settings: solubilisate of hippocampal proteins supplemented with 10 microM Compound-1
T1 construct: hippocampi were isolated from 5-10 aged Tg2576 mice, pulverized under liquid nitrogen and solubilized; from tissue; host or cells: hippocampus of Tg2576 mice
T1 sequence (Q9CQN3 whole entry): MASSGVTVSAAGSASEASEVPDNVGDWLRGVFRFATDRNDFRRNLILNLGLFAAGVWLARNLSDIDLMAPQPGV
Protocol: To isolate Compound-1-interacting hippocampal proteins, hippocampi were isolated from 5-10 aged Tg2576 mice, pulverized under liquid nitrogen and solubilized for 30 min at 4° C. in solubilization buffer (1% sodium deoxycholate, 0.05% SDS, 0.05% Tween 20 in PBS, pH 7.4, supplemented with protease inhibitors). Insoluble material was removed by centrifugation. The supernatant was diluted 1:5 in PBS (supplemented with protease inhibitors). To this solubilisate, Compound-1 was added at a concentration of 10 μM. Buffer exchange into 20 mM Tris pH 7.4 was performed by centrifugation over Amicon Ultra Centrifugal Filter Units (MWCO 3 kDa; EMD Millipore Merck KGaA, Darmstadt, Germany). The concentrated proteins were dissolved in Laemmli sample buffer (Bio-Rad GmbH, Munchen, Germany) supplemented with mercaptoethanol (355 mM) and subjected to 8% SDS-PAGE under reducing conditions. Compound-1-interacting proteins were identified by co-migration, protein bands were cut and subjected to nano-LC-ES-MS/MS (performed by Proteome Factory AG, Berlin, Germany). Proteins were identified using MS/MS ion search of the Mascot search engine (Matrix Science, London, England) and nr protein database (National Center for Biotechnology Information, Bethesda, MD). […]

[4] = system: synaptosomal nerve-associated protein 25 (Snap25); assay: Whole genome microarray gene expression analysis of aortic genes: Snap25; assay type: in vivo; settings: ApoE-/- mice, 10 mg/kg/day for 8 months
Protocol: Whole genome microarray gene expression profiling was performed with aortic specimens isolated from 9-month-old ApoE−/− mice without treatment and with oral treatment for 8 months with alizarin (10 mg/kg/day), and untreated age-matched B6 control mice. Total RNA was isolated by the RNeasy Mini kit according to the protocol of the manufacturer (Qiagen). RNA purity was between 1.8 and 2 as determined by the absorbance ratio of 260/280. RNA quality and absence of signs of degradation were also controlled by RNA electrophoresis on a denaturing agarose gel by the presence of bright bands of 28S and 18S ribosomal RNA. Total RNA was processed for whole genome microarray gene expression profiling with the GeneChip One-Cycle Target Labeling System (Affymetrix) according to the protocol of the manufacturer (Affymetrix GeneChip Expression Analysis Technical Manual Rev. 5). […]
Alzheimer's Disease (AD) is the most frequent form of dementia in the elderly. […] Atherosclerotic lesion area was assessed with oil red O-stained aortas isolated from 9-month-old ApoE−/− mice (FIG. 17A). […] The aortic expression levels of neuronal marker genes of alizarin-treated ApoE−/− mice were determined compared to untreated ApoE−/− mice and untreated B6 mice without atherosclerosis (FIG. 17D,E).

[5] = system: Salmonella strain TA2637; settings: cited from earlier work
[6] = humans; cited from earlier work
[7] = Body weight and food intake of B6 mice under oral treatment; settings: oral 100 mg/kg/day for 4 weeks

O=C1c2ccccc2C(=O)c2c1ccc(O)c2O [Compound-1, 1,2-dihydroxyanthraquinone]
hippocampal neuronal loss [1]: prevented | Abeta plaque load in hippocampal and brain cortical areas [2]: significantly inhibited the accumulation of Abeta plaques | interaction with Tomm6 (co-migration) [3]: major Compound-1-interacting protein | aortic expression level of Snap25 [4]: not down-regulated and maintained at the levels of the non-transgenic B6 controls | mutagenicity in the Ames test [5]: could be mutagenic | toxicity of long-term treatment for several years [6]: is not toxic | body weight ([7]; 12-week-old B6 mice): did not significantly alter | daily food intake / food consumption ([7]; B6 mice): did not significantly alter
